Like-named read-outs stand apart in the source and are kept apart here.
Experiments:
[1] = target: human TLR7 (Homo sapiens (Human), UniProt Q9NYK1); assay: TLR7 inhibition reporter assay (HEK-Blue SEAP); format: cell-based; settings: HEK-Blue cells overexpressing human TLR7, gardiquimod 7.5 μM stimulation
[2] = target: human TLR8 (Homo sapiens (Human), UniProt Q9NR97); assay: TLR8 inhibition reporter assay (HEK-Blue SEAP);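 note: SEAP driven by IFN-β minimal promoter with five NF-κB and AP-1 sites, compounds tested 0.05 nM to 50 µM, 22 h incubation, inhibition relative to agonist plus DMSO wells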
human TLR8, sequence (Q9NR97 27-1041): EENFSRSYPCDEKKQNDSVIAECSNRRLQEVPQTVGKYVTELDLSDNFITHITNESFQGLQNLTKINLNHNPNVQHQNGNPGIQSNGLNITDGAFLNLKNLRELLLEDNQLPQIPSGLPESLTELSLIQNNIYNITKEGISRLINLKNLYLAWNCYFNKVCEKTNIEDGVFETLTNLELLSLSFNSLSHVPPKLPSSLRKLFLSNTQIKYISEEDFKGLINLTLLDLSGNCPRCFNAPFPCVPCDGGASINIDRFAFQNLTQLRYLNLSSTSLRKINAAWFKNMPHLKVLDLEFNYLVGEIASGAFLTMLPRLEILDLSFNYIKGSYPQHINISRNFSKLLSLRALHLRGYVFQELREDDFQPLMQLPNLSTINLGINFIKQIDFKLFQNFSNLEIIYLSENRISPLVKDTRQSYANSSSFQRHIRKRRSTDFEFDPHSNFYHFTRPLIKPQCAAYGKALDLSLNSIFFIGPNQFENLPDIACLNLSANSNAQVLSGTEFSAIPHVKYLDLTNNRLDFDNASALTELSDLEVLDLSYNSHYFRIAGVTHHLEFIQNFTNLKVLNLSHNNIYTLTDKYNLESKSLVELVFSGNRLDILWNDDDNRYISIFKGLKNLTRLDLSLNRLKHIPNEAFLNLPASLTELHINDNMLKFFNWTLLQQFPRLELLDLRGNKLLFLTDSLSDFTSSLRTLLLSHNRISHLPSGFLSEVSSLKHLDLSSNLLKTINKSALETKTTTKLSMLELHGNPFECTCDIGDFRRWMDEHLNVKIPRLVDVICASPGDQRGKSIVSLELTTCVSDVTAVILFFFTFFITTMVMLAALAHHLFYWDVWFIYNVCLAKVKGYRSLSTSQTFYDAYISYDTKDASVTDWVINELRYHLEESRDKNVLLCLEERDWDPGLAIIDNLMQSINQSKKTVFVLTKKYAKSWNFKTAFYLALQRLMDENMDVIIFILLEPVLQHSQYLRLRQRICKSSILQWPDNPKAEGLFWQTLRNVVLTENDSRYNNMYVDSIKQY

[3] = target: human TLR9 (Homo sapiens (Human), UniProt Q9NR96); assay: TLR9 inhibition reporter assay (HEK-Blue SEAP);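 note: SEAP driven by IFN-β minimal promoter carrying five NF-κB and AP-1 sites, 22 h at 37 °C, compounds 0.05 nM–50 µM, inhibition scaled between agonist-plus-DMSO and reference-inhibitor wells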
human TLR9, sequence (Q9NR96 26-1032): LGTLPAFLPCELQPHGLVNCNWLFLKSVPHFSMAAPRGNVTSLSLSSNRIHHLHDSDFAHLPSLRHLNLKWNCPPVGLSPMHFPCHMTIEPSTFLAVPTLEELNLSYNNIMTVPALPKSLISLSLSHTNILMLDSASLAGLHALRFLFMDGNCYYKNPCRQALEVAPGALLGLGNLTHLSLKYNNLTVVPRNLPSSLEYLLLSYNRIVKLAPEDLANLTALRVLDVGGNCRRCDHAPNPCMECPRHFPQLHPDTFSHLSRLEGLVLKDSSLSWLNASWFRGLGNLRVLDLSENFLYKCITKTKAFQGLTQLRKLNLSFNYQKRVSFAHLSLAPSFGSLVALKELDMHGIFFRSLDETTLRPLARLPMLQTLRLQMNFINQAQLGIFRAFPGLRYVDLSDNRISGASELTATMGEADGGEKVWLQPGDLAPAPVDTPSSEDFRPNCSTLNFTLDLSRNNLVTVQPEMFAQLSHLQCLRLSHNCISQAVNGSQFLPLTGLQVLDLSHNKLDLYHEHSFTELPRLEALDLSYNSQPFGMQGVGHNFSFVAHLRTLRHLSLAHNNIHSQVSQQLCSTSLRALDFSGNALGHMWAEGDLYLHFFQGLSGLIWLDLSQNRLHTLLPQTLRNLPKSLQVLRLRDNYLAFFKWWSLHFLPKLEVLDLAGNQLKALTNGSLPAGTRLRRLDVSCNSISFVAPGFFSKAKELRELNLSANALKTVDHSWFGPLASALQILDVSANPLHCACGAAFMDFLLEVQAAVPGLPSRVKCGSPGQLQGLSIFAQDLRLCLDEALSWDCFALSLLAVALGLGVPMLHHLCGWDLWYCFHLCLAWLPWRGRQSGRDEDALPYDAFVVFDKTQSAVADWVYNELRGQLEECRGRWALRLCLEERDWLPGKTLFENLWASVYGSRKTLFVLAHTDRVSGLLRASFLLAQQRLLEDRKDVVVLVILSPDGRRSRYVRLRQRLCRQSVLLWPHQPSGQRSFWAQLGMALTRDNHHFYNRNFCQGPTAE

[4] = read-out: TLR8 IC50; HEK-Blue cells overexpressing human TLR8, R848 15.9 μM stimulation, SEAP reporter
[5] = read-out: TLR9 IC50; HEK-Blue cells overexpressing human TLR9, ODN2006 5 nM stimulation, SEAP reporter
[6] = read-out: TLR8 IC50; HEK-Blue cells overexpressing human TLR8; R848 15.9 μM stimulation; SEAP reporter
[7] = read-out: TLR9 IC50; HEK-Blue cells overexpressing human TLR9; ODN2006 5 nM stimulation; SEAP reporter

human TLR7, sequence (Q9NYK1 27-1049): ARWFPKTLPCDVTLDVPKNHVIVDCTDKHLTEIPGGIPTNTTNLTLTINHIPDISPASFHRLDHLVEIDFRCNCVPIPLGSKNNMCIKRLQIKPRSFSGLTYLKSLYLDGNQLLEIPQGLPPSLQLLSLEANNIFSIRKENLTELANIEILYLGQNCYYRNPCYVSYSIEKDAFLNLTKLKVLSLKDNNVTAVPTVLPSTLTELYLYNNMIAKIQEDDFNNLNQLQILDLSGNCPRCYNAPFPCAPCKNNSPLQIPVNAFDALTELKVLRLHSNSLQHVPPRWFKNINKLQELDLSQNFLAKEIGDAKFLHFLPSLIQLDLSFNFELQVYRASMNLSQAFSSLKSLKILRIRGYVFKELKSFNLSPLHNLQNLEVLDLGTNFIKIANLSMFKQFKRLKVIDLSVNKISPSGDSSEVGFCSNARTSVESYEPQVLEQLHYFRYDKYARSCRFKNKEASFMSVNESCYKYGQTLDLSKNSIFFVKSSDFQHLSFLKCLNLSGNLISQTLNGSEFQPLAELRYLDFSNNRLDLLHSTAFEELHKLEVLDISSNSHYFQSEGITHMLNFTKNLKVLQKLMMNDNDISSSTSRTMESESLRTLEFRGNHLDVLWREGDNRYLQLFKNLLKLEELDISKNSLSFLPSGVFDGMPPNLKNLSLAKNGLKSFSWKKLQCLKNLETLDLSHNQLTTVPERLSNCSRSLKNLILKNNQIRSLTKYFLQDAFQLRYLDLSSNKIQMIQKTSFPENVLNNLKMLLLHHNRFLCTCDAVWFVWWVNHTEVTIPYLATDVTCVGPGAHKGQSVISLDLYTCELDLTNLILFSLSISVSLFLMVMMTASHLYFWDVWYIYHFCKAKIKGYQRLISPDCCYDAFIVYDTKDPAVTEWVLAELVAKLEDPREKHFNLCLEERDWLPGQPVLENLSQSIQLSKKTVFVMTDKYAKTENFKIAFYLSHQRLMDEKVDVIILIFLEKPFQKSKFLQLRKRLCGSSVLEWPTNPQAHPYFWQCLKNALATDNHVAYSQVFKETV

SMILES	IC50 [1] [nM]	IC50 [2, 4] [nM]	IC50 [3, 5] [nM]	IC50 [2, 6] [nM]	IC50 [3, 7] [nM]
Cc1cc(-c2[nH]c3cnc(C4CCC(NC5COC5)CC4)c(F)c3c2C(C)C)cn2ncnc12 (stereo not drawn) [Example 80]	0.16	0.6	1830		
Cc1cc(-c2[nH]c3cnc(C4CCC(NCC(C)(C)O)CC4)c(F)c3c2C(C)C)cn2ncnc12 (stereo not drawn) [Example 49]	0.46	0.62	2430		
Cc1c(N2CCC(N3CCN(S(C)(=O)=O)CC3)CC2)ncc2[nH]c(-c3cc(C)c4ncnn4c3)c(C(C)C)c12 [Example 285]	1.3	1.6	1870		
COc1cc(-c2[nH]c3cnc(N4CCN(C5CCN(C(C)C)CC5)C[C@H]4C)c(F)c3c2C(C)C)cn2ncnc12 [Example 451]	2.6			5.7	792
COc1cc(-c2[nH]c3cnc(C4CCN(CC(=O)N(C)C)CC4)c(C)c3c2C(C)C)cn2ncnc12 [Example 24]	9.7	39	279		
COc1cc(-c2[nH]c3cnc(N4CCC(NC5(C)COC5)CC4)c(F)c3c2C(C)C)cn2ncnc12 [Example 188]	1.6	0.21	5160		
CNC(=O)CN1CC2(C1)CN(c1ncc3[nH]c(-c4cn5ncnc5c(C)c4C)c(C(C)C)c3c1F)C2 [Example 395, 2-(6-(2-(7,8-dimethyl-[1,2,4]triazolo[1,5-a]pyridin-6-yl)-4-fluoro-3-isopropyl-1H-pyrrolo[2,3-c]pyridin-5-yl)-2,6-diazaspiro[3.3]heptan-2-yl)-N-methylacetamide]	44	6.6	17500		
Cc1c(-c2[nH]c3cnc(C4CCC(NC5CCOC5)CC4)cc3c2C(C)C)cn2ncnc2c1C (stereo not drawn) [Example 327]	7.1	17	771		
COc1cc(-c2[nH]c3cnc(C4CCN(C5COC5)CC4)cc3c2C(C)C)cn2ncnc12 [Example 306]	3.9	16	786		
Cc1c(-c2[nH]c3cnc(N4CCN(CC5CCOCC5)CC4)c(F)c3c2C(C)C)cn2ncnc2c1C [Example 411]	9.6	0.18	11200		

Results, then the molecule that gave them:

IC50 [1] [nM]	IC50 [2, 4] [nM]	IC50 [3, 5] [nM]	IC50 [2, 6] [nM]	IC50 [3, 7] [nM]	SMILES
0.18	0.36	1460			Cc1cc(-c2[nH]c3cnc(C4CCC(NC5CCOCC5)CC4)c(F)c3c2C(C)C)cn2ncnc12 (stereo not drawn) [Example 82]
16			34	> 50000	COc1cc(-c2[nH]c3cnc(N4CCN(CC(C)C)C[C@H]4C)c(F)c3c2C(C)C)cn2ncnc12 [Example 453]
14	75	459			COc1cc(-c2[nH]c3cnc(C4CCN(CC(=O)N(C)C)CC4)cc3c2C(C)C)cn2ncnc12 [Example 298]
0.26	0.49	1900			CCN(C)C1CCN(c2ncc3[nH]c(-c4cc(OC)c5ncnn5c4)c(C(C)C)c3c2C)CC1 [Example 138]
12	28	677			CNCC(=O)NC1CCN(c2cc3c(C(C)C)c(-c4cc(OC)c5ncnn5c4)[nH]c3cn2)CC1 [Example 339]
2.4	4.6	293			COc1cc(-c2[nH]c3cnc(C4CCC(N5CC6(COC6)C5)CC4)c(F)c3c2C(C)C)cn2ncnc12 (stereo not drawn) [Example 161]
0.75	0.15	5900			Cc1cc(-c2[nH]c3cnc(N4CCC(NCC5(C)COC5)CC4)c(F)c3c2C(C)C)cn2ncnc12 [Example 129]
41	35	1380			COc1cc(-c2[nH]c3cnc(C4CCC(NCC(C)(C)C)C4)cc3c2C(C)C)cn2ncnc12 (stereo not drawn) [Example 95]
3.8	39	16200			COc1cc(-c2[nH]c3cnc(N4CCN(CC(F)(F)F)CC4)c(F)c3c2C(C)C)cn2ncnc12 [Example 366]
0.37	0.43	1130			COc1cc(-c2[nH]c3cnc(N4CCC(N(C)C(C)C)CC4)c(C)c3c2C(C)C)cn2ncnc12 [Example 86]

From US11912703B2, “6-azaindole compounds” (BRISTOL-MYERS SQUIBB COMPANY, priority 2017, dated 2024)
